Patent publication US20230157952A1, “METHOD FOR IMPROVING THE STABILITY OF A PHARMACEUTICAL COMPOSITION COMPRISING A HIGH PENETRATION DRUG, AND THE PHARMACEUTICAL COMPOSITION OBTAINED THEREFROM” (Techfields Inc., priority 2020, published 2023)

Test: Effect of temperature (and pH) on the stability of the solution (purity)
Format: physicochemical

Compound: CCN(CC)CCOC(=O)Cc1ccccc1Oc1ccc(Cl)cc1Cl.Cl
- Purity (%) at day 21 (60° C.) (pH 1.0, 7% solution in water): 0%
- Purity(%) at day 0 (pH 1.0, 7% solution in water): 97.9 ± 0.3%
- Purity(%) at day 21 (5° C.) (pH 1.0, 7% solution in water): 91.3 ± 0.3%
- Purity(%) at day 21 (25° C.) (pH 1.0, 7% solution in water): 67.3 ± 0.3%
- Purity(%) at day 21 (40° C.) (pH 1.0, 7% solution in water): 15.1 ± 0.3%
- Purity (%) at day 21 (60° C.) (pH 2.0, 7% solution in water): 0%
- Purity(%) at day 0 (pH 2.0, 7% solution in water): 98.0 ± 0.2%
- Purity(%) at day 21 (5° C.) (pH 2.0, 7% solution in water): 95.1 ± 0.3%
- Purity(%) at day 21 (25° C.) (pH 2.0, 7% solution in water): 82.1 ± 0.3%
- Purity(%) at day 21 (40° C.) (pH 2.0, 7% solution in water): 27.0 ± 0.3%
- Purity (%) at day 21 (60° C.) (pH 3.0, 7% solution in water): 0%
- Purity(%) at day 0 (pH 3.0, 7% solution in water): 98.3 ± 0.2%
- Purity(%) at day 21 (5° C.) (pH 3.0, 7% solution in water): 97.0 ± 0.2%
- Purity(%) at day 21 (25° C.) (pH 3.0, 7% solution in water): 93.5 ± 0.2%
- Purity(%) at day 21 (40° C.) (pH 3.0, 7% solution in water): 48.3 ± 0.3%
- Purity (%) at day 21 (60° C.) (pH 3.7, 7% solution in water): 13.3 ± 0.5%
- Purity(%) at day 0 (pH 3.7, 7% solution in water): 98.4 ± 0.1%
- Purity(%) at day 21 (5° C.) (pH 3.7, 7% solution in water): 97.6 ± 0.2%
- Purity(%) at day 21 (25° C.) (pH 3.7, 7% solution in water): 96.9 ± 0.3%
- Purity(%) at day 21 (40° C.) (pH 3.7, 7% solution in water): 57.2 ± 0.2%
- Purity (%) at day 21 (60° C.) (pH 4.0, 7% solution in water): 18.2 ± 0.3%
- Purity(%) at day 0 (pH 4.0, 7% solution in water): 98.5 ± 0.1%
- Purity(%) at day 21 (5° C.) (pH 4.0, 7% solution in water): 98.0 ± 0.1%
- Purity(%) at day 21 (25° C.) (pH 4.0, 7% solution in water): 97.0 ± 0.2%
- Purity(%) at day 21 (40° C.) (pH 4.0, 7% solution in water): 68.1 ± 0.3%
- Purity (%) at day 21 (60° C.) (pH 4.3, 7% solution in water): 17.2 ± 0.2%
- Purity(%) at day 0 (pH 4.3, 7% solution in water): 98.5 ± 0.2%
- Purity(%) at day 21 (5° C.) (pH 4.3, 7% solution in water): 98.0 ± 0.1%
- Purity(%) at day 21 (25° C.) (pH 4.3, 7% solution in water): 97.0 ± 0.3%
- Purity(%) at day 21 (40° C.) (pH 4.3, 7% solution in water): 68.1 ± 0.3%
- Purity (%) at day 21 (60° C.) (pH 4.6, 7% solution in water): 14.3 ± 0.3%
- Purity(%) at day 0 (pH 4.6, 7% solution in water): 98.6 ± 0.1%
- Purity(%) at day 21 (5° C.) (pH 4.6, 7% solution in water): 98.1 ± 0.2%
- Purity(%) at day 21 (25° C.) (pH 4.6, 7% solution in water): 96.1 ± 0.2%
- Purity(%) at day 21 (40° C.) (pH 4.6, 7% solution in water): 54.5 ± 0.2%
- Purity (%) at day 21 (60° C.) (pH 5.0, 7% solution in water): 1.2 ± 0.2%
- Purity(%) at day 0 (pH 5.0, 7% solution in water): 98.4 ± 0.2%
- Purity(%) at day 21 (5° C.) (pH 5.0, 7% solution in water): 96.9 ± 0.2%
- Purity(%) at day 21 (25° C.) (pH 5.0, 7% solution in water): 93.1 ± 0.3%
- Purity(%) at day 21 (40° C.) (pH 5.0, 7% solution in water): 40.8 ± 0.3%
- Purity (%) at day 21 (60° C.) (pH 6.0, 7% solution in water): 0%
- Purity(%) at day 0 (pH 6.0, 7% solution in water): 98.2 ± 0.2%
- Purity(%) at day 21 (5° C.) (pH 6.0, 7% solution in water): 95.0 ± 0.2%
- Purity(%) at day 21 (25° C.) (pH 6.0, 7% solution in water): 86.7 ± 0.2%
- Purity(%) at day 21 (40° C.) (pH 6.0, 7% solution in water): 27.8 ± 0.2%
- Purity (%) at day 21 (60° C.) (pH 7.0, 7% solution in water): 0%
- Purity(%) at day 0 (pH 7.0, 7% solution in water): 98.0 ± 0.3%
- Purity(%) at day 21 (5° C.) (pH 7.0, 7% solution in water): 90.0 ± 0.3%
- Purity(%) at day 21 (25° C.) (pH 7.0, 7% solution in water): 59.3 ± 0.3%
- Purity(%) at day 21 (40° C.) (pH 7.0, 7% solution in water): 11.0 ± 0.4%
- Purity (%) at day 21 (60° C.) (pH 8.0, 7% solution in water): 0%
- Purity(%) at day 0 (pH 8.0, 7% solution in water): 97.8 ± 0.3%
- Purity(%) at day 21 (5° C.) (pH 8.0, 7% solution in water): 78.3 ± 0.3%
- Purity(%) at day 21 (25° C.) (pH 8.0, 7% solution in water): 47.1 ± 0.3%
- Purity(%) at day 21 (40° C.) (pH 8.0, 7% solution in water): 0%
